Assays:
E. coli [1] = experiment: Molecular phenotypic antimicrobial susceptibility test, specimen with two detected pathogens incubated together without isolation; assay type: cell-based, Escherichia coli; conditions: E. coli in specimen with two detected pathogens (E. coli and M. morganii) incubated together; for Ct of Sensitive Breakpoint: Ct of controls (average) 15.93; for Molecular Antimicrobial Susceptibility Result: at sensitive breakpoint
Method: (§1) Detection of Molecular Phenotypic Antimicrobial Susceptibility. Disclosed herein are the methods for the detection of phenotypic antimicrobial susceptibility via molecular methods. The present invention describes how a specimen 100 with a known microbial load is incubated and then exposed to a panel of antimicrobial agents to determine sensitivity (prevention of growth) or resistance (allowance of growth) to the specific antimicrobial agents tested utilizing molecular methods.
(§2) Sample Collection. Specimens 100 are collected from patients using sterile collection processes that are employed in routine clinical care. Specimens are transported to the testing facility in boric acid preservative. Specimens 100 are subsequently divided into a first sample 104 and a second sample 108.
(§3) Preparation of the Specimens for Testing. The specimens 100 are put through a pathogen identification process using PCR technology (e.g., using the first sample 104). The process for pathogen isolation includes steps of harvesting the pathogen (e.g., via centrifugation), isolating pathogen DNA via a DNA isolation and/or purification kit, and performing PCR on the pathogen DNA via PCR components (e.g., primers, enzymes, buffers) as would be known to the skilled artisan. Simultaneously, an additional aliquot of the same specimen (e.g., the second sample 108) is placed with liquid culture media and incubated for 4-6 hours. This aliquot is used for antimicrobial susceptibility testing if indicated based on the pathogen detection results. After pathogen identification is completed and if more than 10,000 cells/mL of bacteria (e.g., eligible bacteria) are detected in the source specimen, the second sample 108 then enters the antimicrobial susceptibility phase of testing. Specimens 100 with lower pathogen loads could also be utilized in the antibiotic susceptibility phase of testing with or without a longer incubation period.
(§4) Preparation of Antimicrobial Susceptibility Testing Plates. Antimicrobial solutions are prepared at known concentrations. The specific antimicrobials and their concentrations are selected based on the pathogen of interest and the described antimicrobial resistance breakpoints for that specimen pathogen and antimicrobial combination. These antimicrobials have been selected based on those commonly utilized by healthcare providers in routine clinical care for the specific type of suspected infection. The number and types of antimicrobials utilized can be customized based on the infection source, pathogen detected, patient-specific factors such as allergies or other health conditions (e.g., chronic kidney disease or concurrent medication use), or healthcare provider preferences such as antimicrobial availability or cost.
(§5) The antimicrobial solutions are prepared in liquid culture media (such as Muller Hinton Broth) to achieve the desired antimicrobial concentration and are then stored at −80° C. until use. For a given specimen, each antimicrobial is tested at a single or multiple antimicrobial concentration(s) which is its established breakpoints for sensitivity. The antimicrobial solutions are prepared and plated out for each specific pathogen. This allows ease of use on the day of testing after defrosting the plate 112. Table 1, which illustrates the results of molecular phenotypic antimicrobial susceptibility testing when more than one organism is present in the source specimen, provides an example of an antimicrobial plate 112 prepared for this purpose. Of note, control wells containing only culture media are present on all plates 112. This allows for evaluation of pathogen load when no antimicrobial is present.
(§6) Specimen Exposure to Antimicrobial Agents. The 1 mL aliquot of the specimen 100 previously mixed with culture media and incubated is obtained. Using optical density measurements as a guide, the specimen 100 is diluted to 0.5 McFarland. […]

E. coli [2] = experiment: Molecular phenotypic antimicrobial susceptibility test with direct PCR (no extraction DNA purification step); assay type: cell-based, Escherichia coli
Method: as §1, §2, §3, §4, §5, §6

[3] = E. coli isolate JJ1887, direct PCR, Ct at control (average) 12.832
[4] = E. coli isolate JJ1887, direct PCR, at sensitive breakpoint

Molecule	Ct of Sensitive Breakpoint (E. coli [1])	Molecular Antimicrobial Susceptibility Result (E. coli [1])	Molecular Antimicrobial Susceptibility Result (E. coli [2]; E. coli #1 - WDCM 00090 - 6.2×E3, specimen with <10,000 cells/mL, direct PCR after 16 hours of incubation)	Ct at Sensitive Breakpoint (E. coli [2]; E. coli #1 - WDCM 00090 - 6.2×E3, specimen with <10,000 cells/mL, direct PCR after 16 hours of incubation, Ct at control 13.787)	Molecular Antimicrobial Susceptibility Result (E. coli [2]; E. coli #2 - WDCM 00090 - 6.2×E3, specimen with <10,000 cells/mL, direct PCR after 16 hours of incubation)	Ct at Sensitive Breakpoint (E. coli [2]; E. coli #2 - WDCM 00090 - 6.2×E3, specimen with <10,000 cells/mL, direct PCR after 16 hours of incubation, Ct at control 13.46)	Ct at Sensitive Breakpoint (E. coli [2]; [3])	Molecular Antimicrobial Susceptibility Result (E. coli [2]; [4])
C[C@@H]1O[C@@H]1P(=O)(O)O [Fosfomycin]	29.24	Sensitive (Antimicrobial wells with pathogen load detected below the control wells (typically >2 cycle thresholds later) may be reported as Sensitive)	Sensitive (Antimicrobial wells with pathogen load detected below the control wells (typically >2 cycle thresholds later) may be reported as Sensitive)	27.59	Sensitive (Antimicrobial wells with pathogen load detected below the control wells (typically >2 cycle thresholds later) may be reported as Sensitive)	28.41		
C[C@@H](O)[C@H]1C(=O)N2C(C(=O)O)=C(S[C@@H]3CN[C@H](C(=O)N(C)C)C3)[C@H](C)[C@H]12 [Meropenem]	25.70	Sensitive (Antimicrobial wells with pathogen load detected below the control wells (typically >2 cycle thresholds later) may be reported as Sensitive)					25.055	Sensitive (Antimicrobial wells with pathogen load detected below the control wells (typically >2 cycle thresholds later) may be reported as Sensitive)
Trimethoprim/Sulfamethoxazole [TMP/SMX]	27.67	Sensitive (Antimicrobial wells with pathogen load detected below the control wells (typically >2 cycle thresholds later) may be reported as Sensitive)					13.414	Resistant
